Measurements: patent US8927717B1, “Thiochromeno[2,3-c]quinolin-12-one derivatives, preparation method and application thereof” (National Defense Medical Center, priority 2014, dated 2015)

How the values were obtained:
Format in all cases: cell-based
[1] = test system: BT-549; conditions: BT-549; 10^−5 molar
[2] = test system: SF-295; conditions: SF-295; 10^−5 molar
[3] = test system: HT29; conditions: HT29; 10^−5 molar
[4] = test system: DU-145; conditions: DU-145; 10^−5 molar
[5] = test system: SK-MEL-5; conditions: SK-MEL-5; 10^−5 molar
[6] = test system: SK-OV-3; conditions: SK-OV-3; 10^−5 molar
[7] = test system: NCI-H23; conditions: NCI-H23; 10^−5 molar
[8] = test system: NCI-H522; conditions: NCI-H522; 10^−5 molar
[9] = test system: HOP-62; conditions: HOP-62; 10^−5 molar
[10] = test system: ACHN; conditions: ACHN; 10^−5 molar
[11] = test system: K-562; conditions: K-562; 10^−5 molar
[12] = test system: HCT-116; conditions: HCT-116; 10^−5 molar
[13] = test system: 60 cancer cell lines; experiment: NCI 60-cell screen, SRB, whole panel (mean, delta, range); conditions: 10^−5 molar; for Growth percent, Delta: delta over panel; for Growth percent, Mean: mean over panel; for Growth percent, Range: range over panel
[14] = test system: MCF7; conditions: MCF7; 10^−5 molar
[15] = test system: MDA-MB-231/ATCC; conditions: MDA-MB-231/ATCC; 10^−5 molar
[16] = test system: OVCAR-8; conditions: OVCAR-8; 10^−5 molar
[17] = test system: RPMI-8226; conditions: RPMI-8226; 10^−5 molar
[18] = test system: U251; conditions: U251; 10^−5 molar
[19] = test system: SW-620; conditions: SW-620; 10^−5 molar
[20] = test system: NCI-H460; conditions: NCI-H460; 10^−5 molar
[21] = test system: T-47D; conditions: T-47D; 10^−5 molar
[22] = test system: SN12C; conditions: SN12C; 10^−5 molar
[23] = test system: MOLT-4; conditions: MOLT-4; 10^−5 molar
[24] = test system: LOX IMVI; conditions: LOX IMVI; 10^−5 molar
[25] = test system: UO-31; conditions: UO-31; 10^−5 molar
[26] = test system: HL-60(TB); conditions: HL-60(TB); 10^−5 molar
[27] = test system: HS 578T; conditions: HS 578T; 10^−5 molar
[28] = test system: MDA-MB-486; conditions: MDA-MB-486; 10^−5 molar
[29] = test system: PC-3; conditions: PC-3; 10^−5 molar
[30] = test system: NCI-H226; conditions: NCI-H226; 10^−5 molar
[31] = test system: 786-0; conditions: 786-0; 10^−5 molar
[32] = test system: CCRF-CEM; conditions: CCRF-CEM; 10^−5 molar
[33] = test system: SR; conditions: SR; 10^−5 molar
[34] = test system: A549/ATCC; conditions: A549/ATCC; 10^−5 molar
[35] = test system: RXF 393; conditions: RXF 393; 10^−5 molar
[36] = test system: HCT-15; conditions: HCT-15; 10^−5 molar
[37] = test system: KM12; experiment: cells; conditions: KM12; 10^−5 molar
[38] = test system: SNB-75; conditions: SNB-75; 10^−5 molar
[39] = test system: COLO 205; conditions: COLO 205; 10^−5 molar

In the case of `O=c1c2cc(Cl)ccc2sc2c(NCCN3CCOCC3)nc3ccccc3c12` [Compound N16, 10-Chloro-6-((2-morpholinoethyl)amino)-12H-thiochromeno[2,3-c]quinolin-12-one], the Growth percent [1] is reported as 91.21%, the Growth percent [2] is reported as 102.17% and the Growth percent [3] is reported as 43.13%. For the same molecule, the Growth percent [4] was 93.09%, the Growth percent [5] was 91.61% and the Growth percent [6] was 85.34%. For the same molecule, the Growth percent [7] was 83.07%, the Growth percent [8] was 76.66% and the Growth percent [9] was 67.97%. The Growth percent [10] was 91.61%, the Growth percent [11] was 17.67% and the Growth percent [12] was 81.64%. For the same molecule, the “Growth percent, Delta” value [13] was 62.71%, the “Growth percent, Mean” value [13] was 80.38% and the “Growth percent, Range” value [13] was 88.85%. The Growth percent [14] was 51.69%, the Growth percent [15] was 59.20% and the Growth percent [16] was 92.43%. It also gave a Growth percent [17] of 92.20%, a Growth percent [18] of 76.34% and a Growth percent [19] of 99.65%. The Growth percent [20] was 100.49%, the Growth percent [21] was 47.63% and the Growth percent [22] was 95.98%. It also gave a Growth percent [23] of 80.91%, a Growth percent [24] of 67.43% and a Growth percent [25] of 54.16%. The Growth percent [26] was 104.97%, the Growth percent [27] was 89.65% and the Growth percent [28] was 74.34%. The Growth percent [29] was 67.82%, the Growth percent [30] was 94.09% and the Growth percent [31] was 83.16%. For the same molecule, the Growth percent [32] was 82.21%, the Growth percent [33] was 67.74% and the Growth percent [34] was 95.12%. For the same molecule, the Growth percent [35] was 93.21%, the Growth percent [36] was 58.81% and the Growth percent [37] was 68.16%. The Growth percent [38] was 60.74% and the Growth percent [39] was 79.39%.

For `CN(C)CCCNc1nc2ccccc2c2c(=O)c3cc(Cl)ccc3sc12` [Compound N17, 10-Chloro-6-((3-(dimethylamino)propyl)amino)-12H-thiochromeno[2,3-c]quinolin-12-one], the Growth percent [1] was 99.81%, the Growth percent [2] was 95.14% and the Growth percent [3] was 90.98%. It also gave a Growth percent [4] of 97.29%, a Growth percent [5] of 91.73% and a Growth percent [6] of 99.91%. For the same molecule, the Growth percent [7] was 100.25%, the Growth percent [8] was 98.76% and the Growth percent [9] was 86.73%. For the same molecule, the Growth percent [10] was 86.20%, the Growth percent [11] was 47.53% and the Growth percent [12] was 70.19%. For the same molecule, the “Growth percent, Delta” value [13] was 44.56%, the “Growth percent, Mean” value [13] was 85.32% and the “Growth percent, Range” value [13] was 68.13%. For the same molecule, the Growth percent [14] was 51.20%, the Growth percent [15] was 73.39% and the Growth percent [16] was 98.38%. The Growth percent [17] was 78.66%, the Growth percent [18] was 84.19% and the Growth percent [19] was 91.74%. The Growth percent [20] was 88.06%, the Growth percent [21] was 79.82% and the Growth percent [22] was 83.63%. The Growth percent [23] was 70.71%, the Growth percent [24] was 66.16% and the Growth percent [25] was 72.62%. The Growth percent [26] was 77.32%, the Growth percent [27] was 87.67% and the Growth percent [28] was 43.26%. It also gave a Growth percent [29] of 81.31%, a Growth percent [30] of 81.01% and a Growth percent [31] of 93.30%. It also gave a Growth percent [32] of 69.06%, a Growth percent [33] of 48.48% and a Growth percent [34] of 81.19%. For the same molecule, the Growth percent [35] was 76.32%, the Growth percent [36] was 80.92% and the Growth percent [37] was 97.75%. The Growth percent [38] was 60.99% and the Growth percent [39] was 91.35%.
